How the values were obtained:
[1] = Bidirectional Caco-2 permeability assay; type: in vitro ADME; settings: human; Caco-2, 10 µM, apical pH 6.0 / basolateral pH 7.4, average of 2 determinations
Procedure: In vitro glycoside prodrug permeability assessment. The permeability of the glycoside prodrugs were measured using the bidirectional Caco-2 assay. Caco-2 cells were seeded onto permeable polycarbonate supports in 12-well Costar Transwell plates and allowed to grow and differentiate for 21-25 days. On day 24, culture medium (DMEM supplemented with 10% FBS, 1% non-essential amino acids and penicillin/streptomycin) was removed from both sides of the transwell inserts and cells were rinsed with warm HBSS. […] The buffer in the donor chamber (apical side for A-to-B assay, basolateral side for B-to-A assay) was removed and replaced with the working solution (10 µM test article in transport buffer). The plates were then placed at 37° C. under light agitation. At designated time points (30, 60 and 90 min); an aliquot of transport buffer from the receiver chamber was removed and replenished with fresh transport buffer. Samples were quenched with ice-cold CH3CN containing internal standard and then centrifuged to precipitate the protein. Resulting supernatants were further diluted with 50/50 ACN/H2O (H2O only for Atenolol) and submitted for LC/MS/MS analysis. […] Atenolol and propranolol were tested as low and […] permeability references. […] The apparent permeability (Papp, measured in cm/s) of a compound is determined according to the following formula: […]
Where dQ/dt is the net rate of appearance in the receiver compartment, A is the area of the Transwell measured in cm^2 (1.12 cm^2), C0 is the initial concentration of compound added to the donor chamber and 60 is the conversion factor for the minute to second.

[2] = In vitro rate of glycoside prodrug hydrolysis in feces supernatant, mouse; type: in vitro ADME; settings: 100 µM, 37° C., pH 6.5, 24 hr
Procedure: (§1) In vitro rate of glycoside prodrugs hydrolysis. The metabolic stability of prodrug candidates to release the parent PDE4 inhibitor could be assessed in vitro according, but not restricted, to the following protocol: feces were collected overnight on a mixture of dry and wet ice in a metabolic cage. Ten volumes (v/w; 30 mL) of 100 mM phosphate buffer (pH 6.5) were added to 3 g of freshly collected rodent feces. The mixture was homogenized with a Stomacher Circulator 400 (2 × 1 min-cycles at 225 rpm). The mixture was transferred to a 50 mL tubes, centrifuged at 10 000xg for 10 min (4° C.) and the supernatant was passed through a 0.45 µm-filter. In a 96 deep-well plate, 198 µL of feces supernatant were aliquoted in 2 wells per compound. Each compound, including positive control, was tested in duplicate. Then 2 µL of 10 mM stock solution of each test compound were spiked in individual wells (duplicate) at a final concentration of 100 µM and samples were sealed and mixed 30 sec at 1000 rpm using a vortexer. Samples were incubated at 37° C. for the desired time in the Thermomixer with constant agitation (300 rpm). At desired time-point, 25 µL of reaction mixture was added to 225 µL of ice-cold quenching solution (acetonitrile + 0.1% (v/v) formic acid) to stop the bacterial enzymatic activity. The quenched incubates were mixed and centrifuged 10 min at 21 000xg at 4° C. A real t0 (no metabolism, 100% total recovery of unchanged prodrug) was generated by adding 22.5 µL of feces supernatant to 225 µL of ice-cold quenching solution (acetonitrile + 0.1% (v/v) formic acid). Then 2.5 µL of 1 mM solution of each test compounds was added, sealed, mixed thoroughly and centrifuged 10 min at 21 000xg at 4° C. All samples, including analytical standards, were analyzed by LC-MS/MS to measure the concentration of the parent PDE4 inhibitor released and the concentration of the corresponding prodrug remaining. A set criteria of 100% recovery is targeted where the summation of the % of prodrug remaining and the % of parent PDE4 inhibitor released should be 100% with an experimental error tolerance of ± 20%. When prodrugs represented by Formula (I) were incubated 24 hours under the conditions described above using mouse, rat and dog feces, the glycoside prodrugs were hydrolyzed to release the corresponding parent PDE4 inhibitor III (Table 3). As a negative control, when compound 4, 10 and 21 were incubated 24 hours under the conditions described above but in the absence of enzyme activities, using mouse feces extract supernatant inactivated by boiling the supernatant 10 minutes, 100% of the prodrugs were recovered unchanged.

[3] = In vitro rate of glycoside prodrug hydrolysis in feces supernatant, rat; type: in vitro ADME; settings: 100 µM, 37° C., pH 6.5, 24 hr
Procedure: as §1

[4] = In vitro rate of glycoside prodrug hydrolysis in feces supernatant, dog; type: in vitro ADME; settings: 100 µM, 37° C., pH 6.5, 24 hr
Procedure: In vitro rate of glycoside prodrugs hydrolysis. The metabolic stability of prodrug candidates to release the parent PDE4 inhibitor could be assessed in vitro according, but not restricted, to the following protocol: feces were collected overnight on a mixture of dry and wet ice in a metabolic cage. Ten volumes (v/w; 30 mL) of 100 mM phosphate buffer (pH 6.5) were added to 3 g of freshly collected rodent feces. The mixture was homogenized with a Stomacher Circulator 400 (2 × 1 min-cycles at 225 rpm). The mixture was transferred to a 50 mL tubes, centrifuged at 10 000xg for 10 min (4° C.) and the supernatant was passed through a 0.45 µm-filter. In a 96 deep-well plate, 198 µL of feces supernatant were aliquoted in 2 wells per compound. Each compound, including positive control, was tested in duplicate. Then 2 µL of 10 mM stock solution of each test compound were spiked in individual wells (duplicate) at a final concentration of 100 µM and samples were sealed and mixed 30 sec at 1000 rpm using a vortexer. Samples were incubated at 37° C. for the desired time in the Thermomixer with constant agitation (300 rpm). […] All samples, including analytical standards, were analyzed by LC-MS/MS to measure the concentration of the parent PDE4 inhibitor released and the concentration of the corresponding prodrug remaining. […]

[5] = Negative control: incubation in mouse feces extract supernatant inactivated by boiling; type: in vitro ADME; settings: 24 hours, mouse feces supernatant boiled 10 minutes (no enzyme activities)
Procedure: as §1, with “A set criteria of 100% recovery is targeted where the summation of the % of prodrug remaining and the % of parent PDE4 inhibitor released should be 100% with an experimental error tolerance of ± 20%. When prodrugs represented by Formula (I) were incubated 24 hours under the conditions described above using mouse, rat and dog feces, the glycoside prodrugs were hydrolyzed to release the corresponding parent PDE4 inhibitor III (Table 3). As a negative control, when compound 4, 10 and 21 were incubated 24 hours under the conditions described above but in the absence of enzyme activities, using mouse feces extract supernatant inactivated by boiling the supernatant 10 minutes, 100% of the prodrugs were recovered unchanged.” left out

β-D-glucuronidase = assay: Positive control: incubation with β-D-glucuronidase in phosphate buffer; type: in vitro ADME; settings: β-D-glucuronidase 50U/mL, phosphate buffer pH 6.5, 37° C., 24 hours
[6] = In vivo glycoside prodrug bioactivation, oral dosing to rats
[7] = In vivo glycoside prodrug bioactivation, oral dosing to C57BI/6 mice; settings: labrasol/5%dextrose solution, over 48 hours
[8] = system: LPS-induced TNFα in human whole blood; assay: LPS-induced TNFα assay in human whole blood; type: cell-based; settings: human whole blood from 12 healthy volunteers, LPS 1 µg/mL, 24 h; read-out: average IC50, TNFα inhibition
in vivo = settings: C57BI/6, mouse, po
PDE4B1 = PDE4B1 (Homo sapiens, UniProt Q07343); assay: Inhibitory potency against PDE4 isozymes (FAM-cAMP fluorescence polarization), PDE4B1
PDE4D2 = PDE4D2 (Homo sapiens, UniProt Q08499); assay: Inhibitory potency against PDE4 isozymes (FAM-cAMP fluorescence polarization), PDE4D2
Sequence of PDE4D2 (Q08499 303-809 limits assumed): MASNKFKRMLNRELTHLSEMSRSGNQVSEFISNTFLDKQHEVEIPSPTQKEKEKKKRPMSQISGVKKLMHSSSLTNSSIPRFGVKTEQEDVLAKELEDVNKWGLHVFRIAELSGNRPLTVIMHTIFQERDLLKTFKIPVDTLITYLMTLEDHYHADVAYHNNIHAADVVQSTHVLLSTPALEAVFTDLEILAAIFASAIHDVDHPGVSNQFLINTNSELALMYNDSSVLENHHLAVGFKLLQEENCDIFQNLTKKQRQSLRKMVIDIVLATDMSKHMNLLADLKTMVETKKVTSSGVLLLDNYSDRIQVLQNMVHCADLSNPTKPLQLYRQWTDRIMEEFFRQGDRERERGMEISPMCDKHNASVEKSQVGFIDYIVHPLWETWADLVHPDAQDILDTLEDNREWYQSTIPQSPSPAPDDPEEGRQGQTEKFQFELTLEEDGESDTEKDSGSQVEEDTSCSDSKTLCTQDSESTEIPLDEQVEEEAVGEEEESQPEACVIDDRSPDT

Sequence of PDE4B1 (Q07343 whole entry, species assumed): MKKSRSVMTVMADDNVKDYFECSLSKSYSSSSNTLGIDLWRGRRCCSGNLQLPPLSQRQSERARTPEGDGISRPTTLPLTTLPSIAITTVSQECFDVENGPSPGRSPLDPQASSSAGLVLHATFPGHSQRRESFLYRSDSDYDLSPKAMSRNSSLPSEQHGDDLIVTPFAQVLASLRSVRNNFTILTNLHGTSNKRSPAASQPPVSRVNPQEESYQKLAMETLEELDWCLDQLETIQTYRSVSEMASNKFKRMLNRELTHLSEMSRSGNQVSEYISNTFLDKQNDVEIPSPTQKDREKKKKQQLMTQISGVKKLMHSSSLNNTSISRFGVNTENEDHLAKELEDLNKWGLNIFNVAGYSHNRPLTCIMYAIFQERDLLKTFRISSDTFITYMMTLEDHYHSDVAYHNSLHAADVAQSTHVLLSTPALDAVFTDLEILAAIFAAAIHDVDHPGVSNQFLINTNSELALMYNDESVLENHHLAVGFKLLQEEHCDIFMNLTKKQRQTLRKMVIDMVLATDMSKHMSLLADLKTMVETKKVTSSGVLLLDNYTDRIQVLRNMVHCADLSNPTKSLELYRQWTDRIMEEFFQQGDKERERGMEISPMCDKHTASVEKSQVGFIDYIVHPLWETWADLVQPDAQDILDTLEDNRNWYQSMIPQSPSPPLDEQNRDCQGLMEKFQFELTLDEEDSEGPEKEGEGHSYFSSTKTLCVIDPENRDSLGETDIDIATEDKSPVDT

Papp A→B at 10 µM [1] | Prodrug Remaining @ 24 hr (%) [2] | Prodrug Remaining @ 24 hr (%) [3] | Prodrug Remaining @ 24 hr (%) [4] | prodrug recovered unchanged [5] | prodrug recovered unchanged (β-D-glucuronidase) | extent of prodrug bioactivation (ratio of parent IIIb over residual prodrug 10 in excreted feces) ([6]; oral, aqueous suspension, over 24 hours) | unchanged prodrug detected in excreted feces [7] | SMILES | IC50 [8] | Kp (in vivo) | time before which released IIIb was not detected in blood ([6]; compound 10 orally as aqueous suspension) | IC50 (PDE4B1) | IC50 (PDE4D2)
0.3 ×10⁻⁶ cm/s | 74% | 47% | 67% | 100% | 64% | 96% | only trace amount | COC(=O)[C@H]1O[C@@H](Oc2ccc(C[C@H](c3ccc(C(C)(C)O)nc3)c3ccc(OC(F)F)c(OC4CC4)c3)cn2)[C@H](O)[C@@H](O)[C@@H]1O [Compound 10, (2S,3S,4S,5R,6S)-methyl 6-((5-((S)-2-(3-cyclopropoxy-4-(difluoromethoxy)phenyl)-2-(6-(2-hydroxypropan-2-yl)pyridin-3-yl)ethyl)pyridin-2-yl)oxy)-3,4,5-trihydroxytetrahydro-2H-pyran-2-carboxylate] | – | – | – | – | –
– | – | – | – | – | – | – | – | CC(C)(O)c1ccc([C@@H](Cc2ccc(=O)[nH]c2)c2ccc(OC(F)F)c(OC3CC3)c2)cn1 [IIIb, (S)-5-(2-(3-cyclopropoxy-4-(difluoromethoxy)phenyl)-2-(6-(2-hydroxypropan-2-yl)pyridin-3-yl)ethyl)pyridin-2(1H)-one] | < 50 nM | 200 | ≥ 2 h | < 10 nM | < 10 nM
